Where no end group is shown, it is not given here.
Columns and labels:
Assay type in all cases: in vivo, rat
Wistar rats [1] = assay: elevated plus maze test; conditions: for number of entries in the open arms, carrier compared with treated animals / percentage of entries into the open arms, carrier compared with treated animals / time spent in the open arms, carrier compared with treated animals: p<0.05
From the text: The elevated plus maze test allows the measurement of the density of exploratory behaviour in a new aversive situation [PELLOW et al., 1985 (17)]. The experiment exploits the conflict in rodents, between the fear of open spaces and the desire of exploring a new environment. The rat, placed at the centre of the device is forced to explore its environment. The open arms form an anxiogenic environment, whereas this is not the case of the closed arms. The number of entries in the whole of the arms, that relating to the open arms, the closed arms, the time spent in the open arms, the entry latency in the first open arm, form parameters which reflect the degree of anxiety of the animal.
The elevated plus maze built in wood consists of four branches at 90° from each other. The two open branches (45×10 cm) and the two closed branches (45×10 cm; surrounded with wooden plates over a height of 40 cm) are positioned facing each other. The central square measures 10×10 cm. The open branches are illuminated by white light with an intensity of 500 lux. The elevated plus maze is located at 50 cm from the ground.
The observations take place between 9.0 am and 11.0 am in order to minimize the influence of the circadian rhythm. […] each passage in the elevated plus maze, the animal is placed for 10 min in an open field in order to stimulate its exploratory behavior. It is then placed in the central square of the elevated plus maze and observed for 5 min. The plus maze is washed with 95% (v/v) ethanol between two passages in order to eliminate the odors.
The animals receive their respective treatment via an intra-peritoneal route, half an hour before passing into the open field.

Wistar rats [2] = assay: light/dark box test; conditions: for time spent in the aversive non-familiar compartment, carrier compared with treated animals: 10 min observation, p<0.05
From the text: The light/dark tests are based on the innate aversion of rodents for intensively illuminated environments and on their spontaneous exploratory behavior in response to slight stress factors such as a new environment and light. The device of the light/dark box allows the study of the exploratory behavior of the rodent towards a non-familiar aversive compartment (intensively illuminated with white light) after habituation in a non-aversive compartment (dark) which then becomes familiar [BOURIN and HASCOËT, 2008 (18)]. Conventional anxiolytics may be detected by using this device.
The light/dark box measures 65×49×35 cm (h×w×l) and is separated into two identical compartments by a plate perforated with three doors of 8×8 cm. The floor is covered with sawdust. Each rat is placed for 24 h in the rear compartment of the box, the doors for communicating with the front compartment being inaccessible. The rear compartment thus becomes the familiar compartment. The animal is fed and hydrated ad libitum. On the day of the test, the rat after treatment is replaced in the familiar compartment and the doors communicating with the front compartment (non-familiar) are made accessible so that the animal may freely explore the environment. The non-familiar compartment is made aversive by white light illumination with an intensity of 1,500 lux. The animals are observed for 10 min and the time spent in each of the compartments is measured.
The animals receive their respective treatment via an intra-peritoneal route, half an hour before opening the communication between the familiar compartment and the non-familiar compartment.

Wistar rats [3] = assay: conditioned defensive burial test
From the text: The conditioned defensive burial test was used for measuring the anxiety level in rats. Developed by PINEL and TREIT (16), this test is based on the innate tendency of rodents, placed in a familiar environment of burying any object perceived as being dangerous by projecting on the latter the litter present at ground level. The expression of the burial behavior by the animal is representative of its anxiety level: more it is anxious, more it buries.
The test takes place in a Plexiglas box (44×28×18 cm), one of the walls of which has an orifice through which an electrode (7×2×0.5 cm) may be inserted. The bottom of the box is covered with a thick layer of sawdust (5 cm). The electrode is connected to a generator delivering a 1 mA intensity current when it is actuated by the experimenter. The whole of the experimentation is carried out in low intensity light.
The experiment consists of habituation phase of 2 days followed by a test phase. During the habituation phase, the rats are placed 20 min daily in the test box, without the electrode, in order to accustom them to the experimental device. During the test phase, each rat is individually placed in the box which contains the electrode. When the animal touches the electrode in the first time, it receives a single shock. From this instant, its behavior is filmed for 5 min and behavioral variables are quantified.
The total burial time and the occurrence latency of the burial behavior after the shock are the most significant variables. A certain number of behaviors oriented towards the electrode and correlated with the anxiety level of the rat (approaches, escapes, contacts) are also counted. Finally, indicators of the activity level of the rat such as the number of upright standing postures are reported.
The animals receive their respective treatments, via an intra-peritoneal route, half an hour before passing into the conditioned defensive burial test.

[4] = diazepam 1 mg/kg intra-peritoneal
[5] = fragment 0.7 mg/kg vs diazepam 1 mg/kg intra-peritoneal
[6] = fragment 91-97 0.7 mg/kg intra-peritoneal

Compound | number of entries in the open arms, carrier compared with treated animals (Wistar rats [1]; [4]) | percentage of entries into the open arms, carrier compared with treated animals (Wistar rats [1]; [4]) | time spent in the open arms, carrier compared with treated animals (Wistar rats [1]; [4]) | time spent in the aversive non-familiar compartment, carrier compared with treated animals (Wistar rats [2]; [4]) | anxiolytic action in conditioned defensive burial (Wistar rats [3]; 0.5 mg/kg intra-peritoneal) | burial duration of an aversive probe after a single 1 mA shock, NaCl 0.9% control compared with treated animals (Wistar rats [3]; 0.5 mg/kg intra-peritoneal, half an hour before test, Mann-Whitney: diazepam p<0.02, fragment 91-97 p<0.04, 5 min observation) | burial duration, fragment 91-97 compared with diazepam (Wistar rats [3]; both 0.5 mg/kg intra-peritoneal) | elevated plus maze open-arm parameters, fragment 91-97 compared with diazepam (Wistar rats [1]; [5]) | number of entries in the open arms, carrier compared with treated animals (Wistar rats [1]; [6]) | percentage of entries into the open arms, carrier compared with treated animals (Wistar rats [1]; [6]) | time spent in the open arms, carrier compared with treated animals (Wistar rats [1]; [6]) | time spent in the non-familiar compartment, fragment 91-97 compared with diazepam (Wistar rats [2]; [5]) | time spent in the aversive non-familiar compartment, carrier compared with treated animals (Wistar rats [2]; [6])
CN1C(=O)CN=C(c2ccccc2)c2cc(Cl)ccc21 [diazepam, reference compound] | significantly less | significantly less | significantly less | significantly less |  |  |  |  |  |  |  |  | 
YLGYLEQ [fragment 91-97 of αs1 casein, Heptapeptide corresponding to the positions 91-97 of αs1 casein] |  |  |  |  | has an anxiolytic action in Wistar rats which acts in the same direction as that of diazepam | significantly larger | No significant difference | No significant difference | significantly less | significantly less | significantly less | No significant difference | significantly less

— patent publication US8685933B2, “Casein-derived peptides having anxiolytic activity” (Universite de Lorraine, priority 2006, dated 2014)
